Patent publication US9333222B2, “Histone deacetylase inhibitors as therapeutic agents for Niemann-Pick type C disease” (University of Notre Dame du Lac, priority 2009, dated 2016)
pEC50, pKi: −log10 of the molar value. Read-outs that look alike come from different tables or passages of the source.

Tests used:
[1] = test system: NPC1 human fibroblast GM03123 cells; experiment: Filipin microscopy assay of free cholesterol in lysosomal storage organelles (LSO ratio); format: cell-based; conditions: for pEC50: read-out: EC50 for correcting the NPC1 phenotype; for effect on NPC1 phenotype: after 4 hours
Procedure: Images were acquired with wide-field microscopy at 10× magnification. […] The effect of each HDACi on NPC1 human fibroblasts was then determined at varying concentrations and times. […] Briefly, NPC1 human fibroblast GM03123 cells were seeded in five 384-well plates in growth medium. […] HDACi were allowed to remain in the culture medium for 72, 48, 24, 4, and 0 hours of treatment. For the control, cells were treated with a corresponding concentration of dimethyl sulfoxide (DMSO). HDACi were added to five wells for each concentration. […] Images were analyzed to obtain an LSO ratio and data were normalized to corresponding DMSO-treated cells.

[2] = test system: NPC1 human fibroblast GM18453 cells; experiment: Filipin microscopy assay of free cholesterol in LSO (LSO ratio); format: cell-based
Procedure: Next, the effect of HDACi on NPC1I1061T homozygous NPC1 human fibroblasts (GM18453) and on NPC2 human fibroblasts (GM18445) was evaluated. Briefly, NPC1 human fibroblast GM18453 cells and NPC2 human fibroblast GM18455 cells were seeded in five 384-well plates in growth medium. […] Cells were incubated at 37° C. in the presence of 5% CO2 atmosphere for 48 hours. […] Images were analyzed to obtain an LSO ratio and data were normalized to corresponding DMSO-treated cells. […] The dotted horizontal lines indicate mean values for the solvent control, and error bars represent the standard error.
Briefly, NPC1 human fibroblast GM18453 cells and NPC2 human fibroblast GM18455 cells were seeded in five 384-well plates in growth medium. […] Cells were incubated at 37° C. in the presence of 5% CO2 atmosphere for 48 hours. […] Images were analyzed to obtain an LSO ratio, and data were normalized to corresponding DMSO-treated cells. […] The dotted horizontal lines indicate mean values for the solvent control, and the error bars represent the standard error.

HDAC2 = HDAC2 (Homo sapiens, UniProt Q92769); conditions: read-out: Inhibition constant Ki HDAC2; cited from earlier work
[3] = Homo sapiens, Fibroblast, after 48 hours

HDAC2, sequence (Q92769 whole entry, species assumed): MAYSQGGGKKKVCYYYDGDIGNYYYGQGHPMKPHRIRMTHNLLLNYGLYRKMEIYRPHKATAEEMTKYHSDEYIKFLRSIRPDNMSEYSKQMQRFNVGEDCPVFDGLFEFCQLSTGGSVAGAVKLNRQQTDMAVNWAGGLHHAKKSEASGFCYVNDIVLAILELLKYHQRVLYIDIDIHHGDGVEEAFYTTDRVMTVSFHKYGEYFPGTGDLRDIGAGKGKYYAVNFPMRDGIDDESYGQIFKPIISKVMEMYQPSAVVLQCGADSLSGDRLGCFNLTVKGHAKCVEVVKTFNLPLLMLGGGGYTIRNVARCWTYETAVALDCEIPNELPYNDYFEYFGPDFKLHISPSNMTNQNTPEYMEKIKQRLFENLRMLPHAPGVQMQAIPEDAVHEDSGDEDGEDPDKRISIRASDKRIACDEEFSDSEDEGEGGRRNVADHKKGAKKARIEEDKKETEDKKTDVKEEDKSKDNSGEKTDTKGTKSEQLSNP

CC(=O)Nc1ccc(C(=O)Nc2ccccc2N)cc1 [CL-994]
pEC50 [1, 3]: ~6.00 | effect on NPC1 phenotype ([1]; GM03123): no effect

CCCCOc1ccc(CC(=O)NO)cc1 [Bufexamac]
correction of the NPC1 phenotype ([1]; various concentrations (0.04-10 μM) and times (4-72 hours), GM03123): no correction of the NPC1 phenotype

Cc1[nH]c2ccccc2c1CCNCc1ccc(/C=C/C(=O)NO)cc1 [LBH-589, panobinostat]
pEC50 ([1]; Homo sapiens, Fibroblast, 48 h): > 8.40 | concentration of highest efficacy in correcting the NPC1 phenotype ([2]; 48-hour treatment, GM18453): 37 nM

O=C(CCCCCCC(=O)Nc1ccccc1)NO [SAHA, vorinostat]
effect on NPC1 phenotype ([1]; GM03123): no effect

O=C(CCCCCCC(=O)Nc1cccnc1)NO [Pyroxamide]
pEC50 [1, 3]: ~6.00 | pKi (HDAC2): 8.44

COc1ccc(Cn2ccc3ccc(C(=O)NO)cc32)cc1 [PCI-34051]
correction of the NPC1 phenotype ([2]; 40 nM to 10 μM, 48 hours, NPC1 human fibroblasts (FIG. 6)): no correction of the NPC1 phenotype

CC(/C=C/C(=O)NO)=C\[C@@H](C)C(=O)c1ccc(N(C)C)cc1 [TSA, trichostatin A]
pEC50 ([1]; after 48 hours): ~7.70
